In PMC7240875 (Integrative Cancer Therapies, 2018):

How the values were obtained:
Assay type in all cases: cell-based
[1] = biological target: T1, NAD(P)H:quinone oxidoreductase-1 (NQO1) (Homo sapiens, UniProt P15559); test: NQO1 activity; settings: KKU100, read-out: % inhibition at 4.55 μM
[2] = biological target: T1, NAD(P)H:quinone oxidoreductase-1 (NQO1); test: single-concentration NQO1 activity screen; settings: read-out: % inhibition at 4.55 μM
[3] = biological target: T1, NAD(P)H:quinone oxidoreductase-1 (NQO1); test: NQO1 activity; settings: KKU100, read-out: % inhibition at 4.55 μM; remark: listed apart in the source

T1 sequence (P15559 whole entry): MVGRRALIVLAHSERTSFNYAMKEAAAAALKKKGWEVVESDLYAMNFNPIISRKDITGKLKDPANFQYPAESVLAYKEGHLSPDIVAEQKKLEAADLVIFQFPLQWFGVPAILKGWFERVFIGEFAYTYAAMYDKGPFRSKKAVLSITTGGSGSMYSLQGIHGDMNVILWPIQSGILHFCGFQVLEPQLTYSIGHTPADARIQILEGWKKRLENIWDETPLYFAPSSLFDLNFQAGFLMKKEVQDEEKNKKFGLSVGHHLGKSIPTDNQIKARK

| SMILES | inhibition at 4.55 µM [1] | inhibition at 4.55 µM [3] | further results |
| --- | --- | --- | --- |
| O=c1ccc2ccccc2o1 [coumarin] | 41.8% | – | – |
| O=c1cc(-c2ccc(O)c(O)c2)oc2cc(O)cc(O)c12 [luteolin] | – | – | inhibition at 4.55 µM [2]: 55% |
| O=c1ccc2ccc(O)cc2o1 [umbelliferone] | – | 63.5% | – |

The next lines start with results.

| inhibition at 4.55 µM [1] | inhibition at 4.55 µM [3] | SMILES | further results |
| --- | --- | --- | --- |
| 34.9% | – | O=c1ccc2cc(O)c(O)cc2o1 [aesculetin] | – |
| – | 77.4% | COc1cc2ccc(=O)oc2cc1O [scopoletin] | – |
